Results published in patent publication US8658826B2, “Amino acid derivatives used as pharmaceutical substances” (Dritte Patentportfolio Beteiligungsgesellschaft mgH & Co. KG, priority 2008, dated 2014).

Assay: oral bioavailability study with rats: benzamidine plasma levels after oral valbenzamidoxime
Assay type: in vivo, rat
Conditions: oral 50 mg/kg
Method: For proving the resorption from the gastrointestinal tract and the subsequent reduction to benzamidine, the valbenamidoxime is orally administered to three rats. The metabolization of the ester into benzamidine in this case takes place in vivo as follows:
The anaesthesia was carried out using xylazine and ketamine. Both were administered by intramuscular injection. The silicone catheters were implanted in the vena jugularis and the arteria carotis. They have locally antithrombotic and anti-inflammatory properties, but are not systemically active. During the surgery, the eyes were protected with a cornea-protective ointment (Oculotect®), and 3-4 ml of Ringer lactate solution was applied subcutaneously for improving the postoperative energy supply. The animals were treated antiphlogistically (Finadyne®, 1 mg/kg of body weight) and antibiotically (Amoxicillin® 15%, 10 mg/kg of body weight) and postoperatively attended and kept warm until they woke up. The day after the surgery, the animals got Nutri Plus®, an energy paste (soy bean oil, molasses, cod-liver oil, meat extract, mineral premixture, vitamin premixture).
Male Wistar rats having an average weight of 200 g served as the test animals. The animals were kept individually in cages. Every second day they got concentrated food. […]
For separating the substances to be analyzed, the following HPLC method was used: […]

SMILES: CC(C)C(N)C(=O)O/N=C(\N)c1ccccc1 (stereo not shown) [valbenzamidoxime]
- resorption of the prodrug after oral administration and metabolization into benzamidine: completely resorbed after oral administration and metabolized into the active form benzamidine
